Consider 12 molecules from patent publication US11331369B2, “Endoparasitic depsipeptides” (Zoetis Services LLC, priority 2017, dated 2022).

Experiment [1] has as its system 4th stage larvae (L4) of Dirofilaria immitis. Nature of the experiment: Dirofilaria immitis, L4 Stage (DiL4) In Vitro Assay. Type of experiment: cell-based. As to conditions: Dirofilaria immitis, 72 h, read-out: DiL4 Minimum Effective Dose (MED), approximately 72 hours incubation; L4 larvae assessed for survival or paralysis.
The test system of experiment [2] is third stage larvae of Haemonchus contortus. Nature of the experiment: Haemonchus contortus L3 (HcL3) Assay. Type of experiment: cell-based. The following applies: 96 h, read-out: HcL3 Minimum Effective Dose (MED).

As to `CC(C)C[C@H]1C(=O)O[C@H](Cc2ccc(Cn3cc(-c4ccncn4)cn3)cc2)C(=O)N(C)[C@@H](CC(C)C)C(=O)O[C@H](C)C(=O)N(C)[C@@H](CC(C)C)C(=O)O[C@H](Cc2ccc(Cn3cc(-c4ccncn4)cn3)cc2)C(=O)N(C)[C@@H](CC(C)C)C(=O)O[C@H](C)C(=O)N1C` [Example 1b-86, (3S,6R,9S,12R,15S,18R,21S,24R)-3,9,15,21-tetraisobutyl-4,6,10,16,18,22-hexamethyl-12,24-bis(4-((4-(pyrimidin-4-yl)-1H-pyrazol-1-yl)methyl)benzyl)-1,7,13,19-tetraoxa-4,10,16,22-tetraazacyclotetracosan-2,5,8,11,14,17,20,23-octaone], the figures for the minimal effective concentration in experiment [1] and in experiment [2] were 0.0001 to 0.001 µM and 10 to 100 µM, respectively.
In the case of `COCc1ccn(Cc2ccc(C[C@H]3OC(=O)[C@H](CC(C)C)N(C)C(=O)[C@@H](C)OC(=O)[C@H](CC(C)C)N(C)C(=O)[C@@H](Cc4ccc(Cn5nccc5COC)cc4)OC(=O)[C@H](CC(C)C)N(C)C(=O)[C@@H](C)OC(=O)[C@H](CC(C)C)N(C)C3=O)cc2)n1` [Example 1a-37, (3S,6R,9S,12R,15S,18R,21S,24R)-3,9,15,21-tetraisobutyl-6-(4-((3-(methoxymethyl)-1H-pyrazol-1-yl)methyl)benzyl)-18-(4-((5-(methoxymethyl)-1H-pyrazol-1-yl)methyl)benzyl)-4,10,12,16,22,24-hexamethyl-1,7,13,19-tetraoxa-4,10,16,22-tetraazacyclotetracosan-2,5,8,11,14,17,20,23-octaone], the minimal effective concentration lay within 0.0001 to 0.001 µM in experiment [1] and 1 to 10 µM in experiment [2].
On the same counts, the results for `CC(C)C[C@H]1C(=O)O[C@H](Cc2ccc(Cn3nc(C#N)cc3C#N)cc2)C(=O)N(C)[C@@H](CC(C)C)C(=O)O[C@H](C)C(=O)N(C)[C@@H](CC(C)C)C(=O)O[C@H](Cc2ccc(Cn3nc(C#N)cc3C#N)cc2)C(=O)N(C)[C@@H](CC(C)C)C(=O)O[C@H](C)C(=O)N1C` [Example 1b-66, 1,1′-(((((2R,5S,8R,11S,14R,17S,20R,23S)-5,11,17,23-tetraisobutyl-4,8,10,16,20,22-hexamethyl-3,6,9,12,15,18,21,24-octaoxo-1,7,13,19-tetraoxa-4,10,16,22-tetraazacyclotetracosane-2,14-diyl)bis(methylene))bis(4,1-phenylene))bis(methylene))bis(1H-pyrazole-3,5-dicarbonitrile)] are at most 0.0001 µM and at most 1 µM.
For `Cc1nn(Cc2ccc(C[C@H]3OC(=O)[C@H](CC(C)C)N(C)C(=O)[C@@H](C)OC(=O)[C@H](CC(C)C)N(C)C(=O)[C@@H](Cc4ccc(Cn5nc(C)c(O)c5C)cc4)OC(=O)[C@H](CC(C)C)N(C)C(=O)[C@@H](C)OC(=O)[C@H](CC(C)C)N(C)C3=O)cc2)c(C)c1O` [Example 1b-16, (3S,6R,9S,12R,15S,18R,21S,24R)-6,18-bis({4-[(4-hydroxy-3,5-dimethyl-1H-pyrazol-1-yl)methyl]phenyl}methyl)-4,10,12,16,22,24-hexamethyl-3,9,15,21-tetrakis(2-methylpropyl)-1,7,13,19-tetraoxa-4,10,16,22-tetraazacyclotetracosan-2,5,8,11,14,17,20,23-octaone], in that order: 0.0001 to 0.001 µM and 1 to 10 µM.
For `CC(C)C[C@H]1C(=O)O[C@H](Cc2ccc(Cn3ccc(Cl)n3)cc2)C(=O)N(C)[C@@H](CC(C)C)C(=O)O[C@H](C)C(=O)N(C)[C@@H](CC(C)C)C(=O)O[C@H](Cc2ccc(Cn3ccc(Cl)n3)cc2)C(=O)N(C)[C@@H](CC(C)C)C(=O)O[C@H](C)C(=O)N1C` [Example 1b-96, (3S,6R,9S,12R,15S,18R,21S,24R)-6,18-bis(4-((3-chloro-1H-pyrazol-1-yl)methyl)benzyl)-3,9,15,21-tetraisobutyl-4,10,12,16,22,24-hexamethyl-1,7,13,19-tetraoxa-4,10,16,22-tetraazacyclotetracosan-2,5,8,11,14,17,20,23-octaone], in that order: at most 0.0001 µM and at most 1 µM.
For the molecule `CC(C)C[C@H]1C(=O)O[C@H](Cc2ccc(Cn3c(C#N)ccc3C#N)cc2)C(=O)N(C)[C@@H](CC(C)C)C(=O)O[C@H](C)C(=O)N(C)[C@@H](CC(C)C)C(=O)O[C@H](Cc2ccccc2)C(=O)N(C)[C@@H](CC(C)C)C(=O)O[C@H](C)C(=O)N1C` [Example 10-31, 1-(4-(((2R,5S,8R,11S,14R,17S,20R,23S)-14-benzyl-5,11,17,23-tetraisobutyl-4,8,10,16,20,22-hexamethyl-3,6,9,12,15,18,21,24-octaoxo-1,7,13,19-tetraoxa-4,10,16,22-tetraazacyclotetracosan-2-yl)methyl)benzyl)-1H-pyrrole-2,5-dicarbonitrile], the minimal effective concentration in experiment [1] is at most 0.0001 µM; in experiment [2] it was 1 to 10 µM.
For `CCOc1ccn(Cc2ccc(C[C@H]3OC(=O)[C@H](CC(C)C)N(C)C(=O)[C@@H](C)OC(=O)[C@H](CC(C)C)N(C)C(=O)[C@@H](Cc4ccc(Cn5nccc5OCC)cc4)OC(=O)[C@H](CC(C)C)N(C)C(=O)[C@@H](C)OC(=O)[C@H](CC(C)C)N(C)C3=O)cc2)n1` [Example 1a-36, (3S,6R,9S,12R,15S,18R,21S,24R)-6-(4-((3-ethoxy-1H-pyrazol-1-yl)methyl)benzyl)-18-(4-((5-ethoxy-1H-pyrazol-1-yl)methyl)benzyl)-3,9,15,21-tetraisobutyl-4,10,12,16,22,24-hexamethyl-1,7,13,19-tetraoxa-4,10,16,22-tetraazacyclotetracosan-2,5,8,11,14,17,20,23-octaone], in that order: 0.0001 to 0.001 µM and 1 to 10 µM.
For `CC(C)C[C@H]1C(=O)O[C@H](Cc2ccc(Cn3cccc3C#N)cc2)C(=O)N(C)[C@@H](CC(C)C)C(=O)O[C@H](C)C(=O)N(C)[C@@H](CC(C)C)C(=O)O[C@H](Cc2ccccc2)C(=O)N(C)[C@@H](CC(C)C)C(=O)O[C@H](C)C(=O)N1C` [Example 10-13, 1-[[4-[[(2R,5S,8R,11S,14R,17S,20R,23S)-14-benzyl-5,11,17,23-tetraisobutyl-4,8,10,16,20,22-hexamethyl-3,6,9,12,15,18,21,24-octaoxo-1,7,13,19-tetraoxa-4,10,16,22-tetrazacyclotetracos-2-yl]methyl]phenyl]methyl]pyrrole-2-carbonitrile], in that order: 0.0001 to 0.001 µM and 1 to 10 µM.
For `CC(C)C[C@H]1C(=O)O[C@H](Cc2ccc(C(C)(C)n3cc(OC(C)C)cn3)cc2)C(=O)N(C)[C@@H](CC(C)C)C(=O)O[C@H](C)C(=O)N(C)[C@@H](CC(C)C)C(=O)O[C@H](Cc2ccc(C(C)(C)n3cc(OC(C)C)cn3)cc2)C(=O)N(C)[C@@H](CC(C)C)C(=O)O[C@H](C)C(=O)N1C` [Example 1c-10, (3S,6R,9S,12R,15S,18R,21S,24R)-3,9,15,21-tetraisobutyl-6,18-bis(4-(2-(4-isopropoxy-1H-pyrazol-1-yl)propan-2-yl)benzyl)-4,10,12,16,22,24-hexamethyl-1,7,13,19-tetraoxa-4,10,16,22-tetraazacyclotetracosan-2,5,8,11,14,17,20,23-octaone], in that order: at most 0.0001 µM and at most 1 µM.
With `COCc1ccnn1Cc1ccc(C[C@H]2OC(=O)[C@H](CC(C)C)N(C)C(=O)[C@@H](C)OC(=O)[C@H](CC(C)C)N(C)C(=O)[C@@H](Cc3ccc(Cn4nccc4COC)cc3)OC(=O)[C@H](CC(C)C)N(C)C(=O)[C@@H](C)OC(=O)[C@H](CC(C)C)N(C)C2=O)cc1` [Example 1b-166, (3S,6R,9S,12R,15S,18R,21S,24R)-3,9,15,21-tetraisobutyl-6,18-bis(4-((5-(methoxymethyl)-1H-pyrazol-1-yl)methyl)benzyl)-4,10,12,16,22,24-hexamethyl-1,7,13,19-tetraoxa-4,10,16,22-tetraazacyclotetracosan-2,5,8,11,14,17,20,23-octaone], the minimal effective concentration is at most 0.0001 µM in experiment [1] and 1 to 10 µM in experiment [2].
On the same counts, the results for `COc1ccn(Cc2ccc(C[C@H]3OC(=O)[C@H](CC(C)C)N(C)C(=O)[C@@H](C)OC(=O)[C@H](CC(C)C)N(C)C(=O)[C@@H](Cc4ccc(Cn5ccc(OC)n5)cc4)OC(=O)[C@H](CC(C)C)N(C)C(=O)[C@@H](C)OC(=O)[C@H](CC(C)C)N(C)C3=O)cc2)n1` [Example 1b-115, (3S,6R,9S,12R,15S,18R,21S,24R)-3,9,15,21-tetraisobutyl-6,18-bis(4-((3-methoxy-1H-pyrazol-1-yl)methyl)benzyl)-4,10,12,16,22,24-hexamethyl-1,7,13,19-tetraoxa-4,10,16,22-tetraazacyclotetracosan-2,5,8,11,14,17,20,23-octaone] are at most 0.0001 µM and at most 1 µM.
For `CCc1ncnn1Cc1ccc(C[C@H]2OC(=O)[C@H](CC(C)C)N(C)C(=O)[C@@H](C)OC(=O)[C@H](CC(C)C)N(C)C(=O)[C@@H](Cc3ccc(Cn4ncnc4CC)cc3)OC(=O)[C@H](CC(C)C)N(C)C(=O)[C@@H](C)OC(=O)[C@H](CC(C)C)N(C)C2=O)cc1` [Example 9-50, (3S,6R,9S,12R,15S,18R,21S,24R)-6,18-bis(4-((5-ethyl-1H-1,2,4-triazol-1-yl)methyl)benzyl)-3,9,15,21-tetraisobutyl-4,10,12,16,22,24-hexamethyl-1,7,13,19-tetraoxa-4,10,16,22-tetraazacyclotetracosan-2,5,8,11,14,17,20,23-octaone], in that order: 0.001 to 0.01 µM and 1 to 10 µM.
